Measurements as given in patent publication US20080020977A1, “Use of Fullerenes to Oxidize Reduced Redox Proteins” (priority 2005, published 2008).

Tests used:
[1] = tested on: cytochrome c; assay: Oxidation state of cytochrome c in the xanthine/xanthine oxidase system (absorbance at 550 nm); type: biochemical; conditions: substituted fullerene added at time zero; versus blank without fullerene; data not shown
Method: The reduction of cytochrome c was performed by employing the xanthine/xanthine oxidase system. The reaction was initiated by the addition of xanthine oxidase (7.5×10^−3 units) to an incubation mixture containing 50 mM potassium phosphate, 0.1 mM EDTA, 0.01 mM cytochrome c, and 0.05 mM xanthine. Xanthine oxidase catalyzed the formation of superoxide radicals, which then reduced cytochrome c to the ferrous form. Reduction of cytochrome c was followed by recording the corresponding increase in the absorbance at 550 nm, using the molar absorption coefficients of 9 mmol^−1cm^−1 and 27.7 mmol^−1cm^−1 for the oxidized (ferric) and reduced (ferrous) forms, respectively. All assays were performed at room temperature. A volume of 3 mL was used in each experiment.
The effect of fullerenes on the oxidation state of cytochrome c was studied using substituted fullerenes C3 and DF-1, described above, wherein the substituted fullerene was added to the reaction mixture at 5, 10, or 15 minutes after addition of xanthine oxidase. Results are shown in FIG. 11, with time=0 for each run being the moment when the substituted fullerene was added. In the negative control, without fullerene (blank), reduction of cytochrome c (increase of absorbance at 550 nm) can be seen over 600 sec. […]

[2] = tested on: mice; conditions: oral, about 0.5 mg/kg/day, cited from earlier work

## (C60(>C(COOH)2)3) [C3]
[1]
  extent and rate of reduction of cytochrome c (increase of absorbance at 550 nm): reduced
[2]; controls 23.5+/−5.5 months
  mean survival: 28.7+/−3.3 months
[2]; p=0.033
  increase in mean survival relative to controls: ~20%
